Reference: US20250262308A1, “Compositions and Methods for Modulating Dopamine Receptor Activity” (The Regents of the University of California, priority 2022, published 2025)

Tests used:
[1] = biological target: T1, D2R (Homo sapiens, UniProt P14416); assay: GIRK activation assay, whole-cell patch clamp, HEK293T co-transfected with M, D2R and GIRK1 (F137S); format: cell-based; details: for photo-agonism of D2R (GIRK inward current): P tethered to M, compared with saturating dopamine (1 μM)
T1 construct: expressed in transfected cells; host or cells: HEK293T
T1 sequence (P14416 whole entry): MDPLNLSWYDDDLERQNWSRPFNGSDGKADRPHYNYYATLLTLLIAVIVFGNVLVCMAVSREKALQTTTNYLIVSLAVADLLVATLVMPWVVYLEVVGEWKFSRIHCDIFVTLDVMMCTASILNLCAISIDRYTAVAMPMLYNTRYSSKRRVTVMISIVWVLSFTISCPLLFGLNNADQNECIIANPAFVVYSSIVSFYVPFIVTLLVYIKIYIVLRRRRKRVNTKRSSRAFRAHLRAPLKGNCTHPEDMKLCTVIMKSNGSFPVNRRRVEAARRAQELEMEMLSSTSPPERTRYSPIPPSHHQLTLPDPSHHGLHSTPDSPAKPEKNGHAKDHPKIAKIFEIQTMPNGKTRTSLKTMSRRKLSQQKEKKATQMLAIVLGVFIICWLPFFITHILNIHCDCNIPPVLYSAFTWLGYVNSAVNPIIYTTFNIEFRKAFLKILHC
Procedure: D2R photo-activation was evaluated in a G protein-activated inwardly rectifying K^+ channel (GIRK) activation assay. The M anchoring protein was re-designed by substituting the SNAP-tag at its external N-terminal with a HALO-tag (FIG. 3A). HEK293T were co-transfected with M, D2R and the homotetramerizing mutant of GIRK1 (F137S), making it possible to detect D2R activation as Gi/o-dependent GIRK inward-current at high external K^+ and negative holding potential. Transfected cells were patch clamped in whole-cell configuration and alternately irradiated with 440 nm light or perfused with a saturating (1 μM) concentration of dopamine to elicit maximal D2R activation.
(A) Schematic representation of D2R activation by MP-D2ago in response to light. (B, C) Representative traces of MP-D2ago with one (1×; B) or two (2×; C) branch points. (D) Summary of the maximal photo-activation of D2R by MP-D2ago relative to a saturating concentration of DA (1 μM). […] Summary of the activation and deactivation kinetics (E) and light sensitivity (F) of D2R in response to 1× or 2×MP-D2ago.
To complement our cell-targeted D2R photo-agonist, a tethered photo-antagonist for D2R was designed. The same photoswitch architecture was employed; however, in this case, one of two substituted phenyl piperazines was used as a head group (FIG. 5A). Two variant phenyl piperazines, 2,3-dichloro- and 2-methoxy-phenylpiperazine, were chosen as the core scaffold. To each of these, we appended a 3-carbon (C3) linker followed by the same PEG- and HALO substrate employed in the synthesis of P-D2ago, thereby generating potential photo-antagonists. […] A 4-carbon linker at this position was tested.
FIG. 5A-5G: Evaluation of phenylpiperazine-based MPs of D2R in HEK293T cells. A) Chemical structures of P-D2 constructs used to label the M protein. B) Schematic representation MP-D2block,C3 and MP-D2pa,C3 activity under light irradiation. CD) Patch clamp electrophysiology traces of tethered partial agonists. E) Schematic representation of dopamine blocking by MP-D2block under light irradiation. F,G) Patch clamp electrophysiology traces of tethered D2 antagonist.

[2] = UV/Vis photophysical characterization of the photoswitch; format: physicochemical
Procedure: FIG. 2A-2E. Synthesis of P-D2ago and photophysical characterization. A) Chemical Synthesis of P-D2ago. B) UV Vis absorbance spectra of P-D2ago (20 μM in DMSO, 24° C.) in the dark and under 415 nm irradiation. C) Wavelength scan for P-D2ago (20 μM, DMSO, 24° C.). Each wavelength is applied for 2 minutes. […] E) Thermal relaxation of P-D2ago in DMSO after 1 minute irradiation with 415 nm at 37° C. F) Synthesis of branched, photoswitchable amino indenyl dimer P-D2ago-2X.
UV Vis data were analyzed and plotted using […] Prism. Irradiation was achieved from the top of the cuvette through a fiber-optic cable. […] Absorbance (reported as Abs, in arbitrary units) was measured at 420 nm over time. Thermal Relaxation was measured after 1 min irradiation with 415 nm at 10 or 20 μM, and subsequently absorption increase was detected at 420 nm. The relaxation half-live of the cis-isomer was determined by curve fitting, using exponential one-phase decay in […] Prism. Photostationary states were determined by pre-irradiation of samples (20 uM, DMSO) for 10 min at the respective wavelengths. Samples for LCMS separation were prepared under red-light conditions in amber vials and immediately subjected to LCMS.
FIG. 8A-8E: Photophysical Characterization of P-D1block(24) A) UV Vis absorption spectra of dark-adapted (100% trans) P-D1block(24) in DMSO (20 μM), and after preirradiation with 370/460 nm for 10 min. […] C) Photostationary state (PSS) of P-D1block(24) in DMSO (20 μM, 24° C.), after preirradiation with 360/420 nm for 10 min. Detection of PSS was achieved by LCMS by separation of isomers and integration of Abs at the isosbestic point of cis- and trans-isomers at the respective elution solvent mixtures. D, E) Thermal relaxation of P-D1block(24) in 10% DMSO in PBS and 100% DMSO at 37° C., detection of Abs at 340 nm after pre-irradiation of the samples for 10 min at 360 nm.

Structure (SMILES) | photo-agonism of D2R (GIRK inward current) ([1]; 440 nm light) | sensitivity to light, greater than P-D2ago ([1]; tethered to M) | activation kinetics, faster than P-D2ago ([1]; tethered to M, 440 nm light) | reversible switching ([2]; 20 μM in DMSO, alternating irradiation) | thermal back-relaxation in aqueous environment ([2]; 10% DMSO in PBS) | absorption maximum ([2]; UV/Vis, 20 μM in DMSO, 24° C.) | wavelength of maximal switching into the cis-form (maximum PSS) ([2]; wavelength scan, 20 μM, DMSO, 24° C.) | photo-antagonism of D2R activation by dopamine ([1]; tethered to M, 440 nm light, 1 uM dopamine)
CCCN(CCCCNc1ccc(/N=N/c2ccc(NC(=O)CCOCCOCCOCCOCCOCCOCCOCCOCCOCCOCCOCCOCCOCCOCCOCCOCCOCCOCCOCCOCCOCCOCCOCCOCCNC(=O)CCC(NC(=O)CCC(=O)NCCOCCOCCCCCCCl)C(=O)NCCOCCOCCOCCOCCOCCOCCOCCOCCOCCOCCOCCOCCOCCOCCOCCOCCOCCOCCOCCOCCOCCOCCOCCOCCC(=O)Nc3ccc(/N=N/c4ccc(NCCCCN(CCC)C5Cc6ccccc6C5)cc4)cc3)cc2)cc1)C1Cc2ccccc2C1 (stereo not shown) [2X-P-D2ago] | same maximal activation | ~5 fold | ~2 fold |  |  |  |  | 
CCCN(CCCCNc1ccc(/N=N/c2ccc(NC(=O)CCOCCOCCOCCOCCOCCOCCOCCOCCOCCOCCOCCOCCOCCOCCOCCOCCOCCOCCOCCOCCOCCOCCOCCOCCNC(=O)CCC(=O)NCCOCCOCCCCCCCl)cc2)cc1)C1Cc2ccccc2C1 [P-D2ago] | full photo-agonism |  |  | without fatigue | exceeds the detection limit | 424 nm | 440 nm | 
COc1ccccc1N1CCNCC1 [2-methoxy-phenylpiperazine] | very weak partial agonism |  |  |  |  |  |  | very weak antagonism
